Data from US20070128217A1 (priority 2003, published 2007).

Legend:
[1] = system: antibodies in sera from SARS patients (sera 1a, 1b, 2, 6, 37, 62, London, SARS-yellow, SARS-green); assay type: binding, human; parameters: Binding of serum 6 to linear peptides of protein X1 of SARS-CoV Urbani / Binding of serum 37 to linear peptides of protein X1 of SARS-CoV Urbani / Binding of serum 6 to looped/cyclic peptide (PEPSCAN-ELISA) / Binding of serum 37 to looped/cyclic peptide (PEPSCAN-ELISA) / Binding of serum 37 to looped/cyclic peptides of protein X1 of SARS-CoV Urbani / Binding of serum 6 to linear peptides of protein X2 / Binding of serum 37 to linear peptides of protein X2 / Binding of serum 37 to looped/cyclic peptides of protein X2 of SARS-CoV Urbani / Binding of serum 6 to linear peptides of protein M of SARS-CoV Urbani / Binding of serum 37 to linear peptides of protein M of SARS-CoV Urbani / Binding of serum 6 to looped/cyclic peptides of protein M of SARS-CoV Urbani / Binding of serum 37 to looped/cyclic peptides of protein M of SARS-CoV Urbani / Binding of serum 6 to linear peptides of protein X3 of SARS-CoV Urbani / Binding of serum 37 to linear peptides of protein X3 of SARS-CoV Urbani / Binding of serum 37 to looped/cyclic peptides of protein X3 of SARS-CoV Urbani / Binding of serum 6 to linear peptides of protein X4 of SARS-CoV Urbani / Binding of serum 37 to linear peptides of protein X4 of SARS-CoV Urbani / Binding of serum 37 to looped/cyclic peptides of protein X4 of SARS-CoV Urbani / Binding of serum 6 to linear peptides of protein X5 of SARS-CoV Urbani / Binding of serum 37 to linear peptides of protein X5 of SARS-CoV Urbani / Binding of serum 37 to looped/cyclic peptides of protein X5 of SARS-CoV Urbani / Binding of serum 6 to linear peptides of protein N of SARS-CoV Urbani / Binding of serum 37 to linear peptides of protein N of SARS-CoV Urbani / Binding of serum 6 to linear peptide (PEPSCAN-ELISA) / Binding of serum 1a to looped/cyclic peptides of protein N of SARS-CoV Urbani / Binding of serum 1b to looped/cyclic peptides of protein N of SARS-CoV Urbani / Binding of serum 2 to looped/cyclic peptides of protein N of SARS-CoV Urbani / Binding of serum 6 to looped/cyclic peptides of protein N of SARS-CoV Urbani / Binding of serum 37 to looped/cyclic peptides of protein N of SARS-CoV Urbani / Binding of serum 62 to looped/cyclic peptides of protein N of SARS-CoV Urbani / Binding of serum London to looped/cyclic peptides of protein N of SARS-CoV Urbani / Binding of serum SARS-green to looped/cyclic peptides of protein N of SARS-CoV Urbani: unit not given here
[2] = system: control sera (pooled serum of ten healthy LUMC hospital workers; commercial negative donor pooled serum from the Dutch bloodbank); assay type: binding, human; parameters: Binding of Control serum LUMC to linear peptides / Binding of Control serum Blood-bank to linear peptides / Binding of Control serum LUMC to looped peptides / Binding of Control Serum Blood-Bank to Looped peptides / Binding of Control serum LUMC to linear peptides of the protein M of SARS-CoV Urbani / Binding of Control serum Blood-bank to linear peptides of the protein M of SARS-CoV Urbani / Binding of Control serum LUMC to looped peptides of the protein M of SARS-CoV Urbani / Binding of Control Serum Blood-Bank to Looped peptides of the protein M of SARS-CoV Urbani: unit not given here
[3] = system: rabbit serum obtained by immunizing a rabbit with the SARS-CoV strain Frankfurt 1; assay type: binding; parameters: Binding of a rabbit serum to linear peptides / Binding of a rabbit serum to looped peptides / Rabbit serum linear peptides / Rabbit serum looped peptides / Binding of a rabbit serum to linear peptides of protein N of SARS-CoV Urbani (Rabbit serum linear peptides) / Binding of a rabbit serum to looped/cyclic peptides of protein N of SARS-CoV Urbani (Rabbit serum looped peptides): unit not given here

In the case of LAAVYRINWVTGGIA, the “Binding of serum 1a to linear peptides of protein M of SARS-CoV Urbani” value [1] is reported as 0.7, the “Binding of serum 1a to looped/cyclic peptides of protein M of SARS-CoV Urbani” value [1] is reported as 0.8 and the “Binding of serum 1b to linear peptides of protein M of SARS-CoV Urbani” value [1] is reported as 0.5. The “Binding of serum 1b to looped/cyclic peptides of protein M of SARS-CoV Urbani” value [1] was 0.2, the “Binding of serum 2 to linear peptides of protein M of SARS-CoV Urbani” value [1] was 0.6 and the “Binding of serum 2 to looped/cyclic peptides of protein M of SARS-CoV Urbani” value [1] was 0.5. For the same sequence, the “Binding of serum 6 to linear peptides of protein M of SARS-CoV Urbani” value [1] was 0.3, the “Binding of serum 6 to looped/cyclic peptides of protein M of SARS-CoV Urbani” value [1] was 0.7 and the “Binding of serum 37 to linear peptides of protein M of SARS-CoV Urbani” value [1] was 0.8. For the same sequence, the “Binding of serum 37 to looped/cyclic peptides of protein M of SARS-CoV Urbani” value [1] was 0.5, the “Binding of serum 62 to linear peptides of protein M of SARS-CoV Urbani” value [1] was 0.9 and the “Binding of serum 62 to looped/cyclic peptides of protein M of SARS-CoV Urbani” value [1] was 0.5. For the same sequence, the “Binding of serum London to linear peptides of protein M of SARS-CoV Urbani” value [1] was 0.3, the “Binding of serum London to looped/cyclic peptides of protein M of SARS-CoV Urbani” value [1] was 0.2 and the “Binding of serum SARS-green to linear peptides of protein M of SARS-CoV Urbani” value [1] was 0.3. The “Binding of serum SARS-green to looped/cyclic peptides of protein M of SARS-CoV Urbani” value [1] was 0.3, the “Binding of serum SARS-yellow to linear peptides of protein M of SARS-CoV Urbani” value [1] was 0.1 and the “Binding of serum SARS-yellow to looped/cyclic peptides of protein M of SARS-CoV Urbani” value [1] was 0.3. The “Binding of Control Serum Blood-Bank to Looped peptides of the protein M of SARS-CoV Urbani” value [2] was 0.4, the “Binding of Control serum Blood-bank to linear peptides of the protein M of SARS-CoV Urbani” value [2] was 0.6 and the “Binding of Control serum LUMC to linear peptides of the protein M of SARS-CoV Urbani” value [2] was 0.5. For the same sequence, the “Binding of Control serum LUMC to looped peptides of the protein M of SARS-CoV Urbani” value [2] was 0.6, the “Rabbit serum linear peptides” value [3] was 0.4 and the “Rabbit serum looped peptides” value [3] was 0.0.
For LVIGFLFLAWIMLLQ, the “Binding of serum 1a to linear peptides of protein M of SARS-CoV Urbani” value [1] was 0.7, the “Binding of serum 1a to looped/cyclic peptides of protein M of SARS-CoV Urbani” value [1] was 0.7 and the “Binding of serum 1b to linear peptides of protein M of SARS-CoV Urbani” value [1] was 0.5. For the same sequence, the “Binding of serum 1b to looped/cyclic peptides of protein M of SARS-CoV Urbani” value [1] was 0.6, the “Binding of serum 2 to linear peptides of protein M of SARS-CoV Urbani” value [1] was 0.5 and the “Binding of serum 2 to looped/cyclic peptides of protein M of SARS-CoV Urbani” value [1] was 0.8. For the same sequence, the “Binding of serum 6 to linear peptides of protein M of SARS-CoV Urbani” value [1] was 0.4, the “Binding of serum 6 to looped/cyclic peptides of protein M of SARS-CoV Urbani” value [1] was 0.5 and the “Binding of serum 37 to linear peptides of protein M of SARS-CoV Urbani” value [1] was 0.4. The “Binding of serum 37 to looped/cyclic peptides of protein M of SARS-CoV Urbani” value [1] was 0.7, the “Binding of serum 62 to linear peptides of protein M of SARS-CoV Urbani” value [1] was 0.4 and the “Binding of serum 62 to looped/cyclic peptides of protein M of SARS-CoV Urbani” value [1] was 0.7. The “Binding of serum London to linear peptides of protein M of SARS-CoV Urbani” value [1] was 0.3, the “Binding of serum London to looped/cyclic peptides of protein M of SARS-CoV Urbani” value [1] was 0.2 and the “Binding of serum SARS-green to linear peptides of protein M of SARS-CoV Urbani” value [1] was 0.4. For the same sequence, the “Binding of serum SARS-green to looped/cyclic peptides of protein M of SARS-CoV Urbani” value [1] was 0.3, the “Binding of serum SARS-yellow to linear peptides of protein M of SARS-CoV Urbani” value [1] was 0.1 and the “Binding of serum SARS-yellow to looped/cyclic peptides of protein M of SARS-CoV Urbani” value [1] was 0.7. For the same sequence, the “Binding of Control Serum Blood-Bank to Looped peptides of the protein M of SARS-CoV Urbani” value [2] was 0.6, the “Binding of Control serum Blood-bank to linear peptides of the protein M of SARS-CoV Urbani” value [2] was 0.6 and the “Binding of Control serum LUMC to linear peptides of the protein M of SARS-CoV Urbani” value [2] was 0.5. The “Binding of Control serum LUMC to looped peptides of the protein M of SARS-CoV Urbani” value [2] was 0.7, the “Rabbit serum linear peptides” value [3] was 0.1 and the “Rabbit serum looped peptides” value [3] was 0.3.
For WLCALGKVLPFHRWH, the “Binding of serum 1a to linear peptides of protein X5 of SARS-CoV Urbani” value [1] was 0.7, the “Binding of serum 1a to looped/cyclic peptides of protein X5 of SARS-CoV Urbani” value [1] was 0.5 and the “Binding of serum 1b to linear peptides of protein X5 of SARS-CoV Urbani” value [1] was 0.6. The “Binding of serum 1b to looped/cyclic peptides of protein X5 of SARS-CoV Urbani” value [1] was 0.4, the “Binding of serum 2 to linear peptides of protein X5 of SARS-CoV Urbani” value [1] was 0.7 and the “Binding of serum 2 to looped/cyclic peptides of protein X5 of SARS-CoV Urbani” value [1] was 0.6. For the same sequence, the “Binding of serum 6 to linear peptides of protein X5 of SARS-CoV Urbani” value [1] was 0.8, the “Binding of serum 6 to looped/cyclic peptides of protein X5 of SARS-CoV Urbani” value [1] was 0.7 and the “Binding of serum 37 to linear peptides of protein X5 of SARS-CoV Urbani” value [1] was 0.7. The “Binding of serum 37 to looped/cyclic peptides of protein X5 of SARS-CoV Urbani” value [1] was 0.5, the “Binding of serum 62 to linear peptides of protein X5 of SARS-CoV Urbani” value [1] was 0.8 and the “Binding of serum 62 to looped/cyclic peptides of protein X5 of SARS-CoV Urbani” value [1] was 0.7. For the same sequence, the “Binding of serum London to linear peptides of protein X5 of SARS-CoV Urbani” value [1] was 0.8, the “Binding of serum London to looped/cyclic peptides of protein X5 of SARS-CoV Urbani” value [1] was 0.5 and the “Binding of serum SARS-green to linear peptides of protein X5 of SARS-CoV Urbani” value [1] was 0.6. For the same sequence, the “Binding of serum SARS-green to looped/cyclic peptides of protein X5 of SARS-CoV Urbani” value [1] was 0.5, the “Binding of serum SARS-yellow to linear peptides of protein X5 of SARS-CoV Urbani” value [1] was 0.2 and the “Binding of serum SARS-yellow to looped/cyclic peptides of protein X5 of SARS-CoV Urbani” value [1] was 0.6. For the same sequence, the “Binding of Control Serum Blood-Bank to Looped peptides” value [2] was 0.4, the “Binding of Control serum Blood-bank to linear peptides” value [2] was 0.9 and the “Binding of Control serum LUMC to linear peptides” value [2] was 0.6. For the same sequence, the “Binding of Control serum LUMC to looped peptides” value [2] was 0.6, the “Rabbit serum linear peptides” value [3] was 0.6 and the “Rabbit serum looped peptides” value [3] was 0.8.
